Patent US20100041632A1, “USES OF THE CARBOXY-AMIDO-TRIAZOLE COMPOUNDS AND SALTS THEREOF” (priority 2006, published 2010)

Legend:
Kunming mice [1] = experiment: Effect of CAI on drug addiction caused by morphine (naloxone-induced jumping); settings: mouse, in vivo
Procedure: 160 Kunming mice (18-22 g, half male and half female) were divided into 4 groups randomly, with 40 mice per group:
Control group with solvent, PEG400/N.S. (10 μl/g/day PEG400, (ig), 4 days);
Group treated with CAI, CAI/N.S. (CAI is resolved in PEG400 to reach a final concentration of […], 20 mg CAI/kg/day was administered (ig) for 4 days, N.S. was taken according to morphine administration in table 1);
Group treated with morphine, PEG400/morphine (10 μl/g/day PEG400 was administered (ig) for 4 days, morphine was administered according to the table below);
4 hours after the morphine administration on the fifth day, animals of each group was injected (ip) with 1 mg/kg naloxone and then put into a tank (5000 ml) immediately. The jump frequency in 30 minutes was recorded. Two-factor analysis of variance by SPSS was performed to analyse the experiment results.

Kunming mice [2] = experiment: Formalin test (analgesic effect); assay type: in vivo
Procedure: 320 Kunming mice (18-22 g, half male and half female) were divided into 4 groups randomly with 80 animals in each group.
Control group with dissolvent (PEG400/N.S.): 10 μl PEG400 was administered (ig) twice with the interval of 24 hours. The pain intensity test was carried out 8 hours after the second administration. 200 μl N.S. is injected (sc) 5 minutes before the test.
Morphine/PEG400 group: 10 μl PEG400 was administered (ig) twice with the interval of 24 hours. The pain intensity test was carried out 8 hours after the second administration. Morphine (2 mg/kg body weight) was injected (sc) 5 minutes before the test.
CAI/N.S. group: CAI (20 mg/kg body weight, 2 mg/ml) was administered (ig) twice with the interval of 24 hours. The pain intensity test was carried out 8 hours after the second administration. 200 μl N.S. was injected (sc) 5 minutes before the test.
The pain intensity test was carried out 8 hours after the second administration. Morphine (2 mg/kg body weight) was injected (sc) 5 minutes before the test.
5 minutes after the morphine or N.S. injection, 20 μl 2% formalin was injected (sc) into the subplantar space of the hind paw. The animals were placed immediately in a glass cylinder hanging on a holder, with a mirror placed below with 30° slope to observe the paw responses. The pain responses of the animals with injected paws were recorded; a pain ranking was recorded as follows: 3=the injected paw is licked, bitten, or shaken; 2=the injected paw is elevated and is not in contact with any other surface; 1=the injected paw has little or no weight on it; 0=the injected paw is not favored. The duration of each of the 4 behavioral categories was recorded. The observation lasted for 15 minutes. A pain intensity score was calculated by multiplying the amount of time spent in each category by its assigned category score and adding these products together.

Kunming mice [3] = experiment: Mouse writhing test (acetic acid); assay type: in vivo; settings: 20 mg/kg ig for 4 days
Procedure: Kunming mice (18-22 g, male) were randomly divided into several groups with 20 animals in each group.
Control group: PEG400 was administered (ig) for 4 days, 0.1 ml/10 g body weight.
Test groups: CAI and its analogues (compounds with structural formula of A, R1═Cl or H, R2═Cl, H, Br, CH3 or CF3, R3═Cl, Br, CF3, NO2 or CN, X═O, S or C═O; The compounds are listed in Table 6 (A1˜A10)) were administered (ig) for 4 days (20 mg/kg body weight, 2 mg/ml).
The pain intensity test was carried out 8 hours after the last drug administration. 0.6% acetic acid (0.1 ml/10 g body weight) was injected (ip). The animals were put into a glass cylinder immediately. The writhing frequency in the following 5-15 minutes was recorded.

rats = experiment: Granulomatous tissue formation (implanted tampon); assay type: in vivo
Procedure: 44 rats (160 g) were randomly divided into 4 groups (11 rats/group). Animals were slightly anaesthetized by ether. After sterilization, the groin was cut bilaterally. A sterile tampon (50 mg) was implanted (sc). On the same day, the following treatments were administered: N.S. (i.p., control group), 0.067 mg/kg/day dexamethasone (i.p., positive control), 20 mg/kg/day CAI (p.o., dissolved in PEG 400, test group) and 0.067 mg/kg/day dexamethasone+20 mg/kg/day CAI (p.o., dissolved in PEG 400, combination group). After 7 days administration, the animals were sacrificed. The cotton was removed. The granulomatous tissue was dried at 60° C. oven for 12 hr and weighed. Increment in the dry weight of the tissue was taken as measure of granuloma formation. The Increment was adjusted for respective body weight, and the mean value for each group was calculated.

Wistar rats = experiment: Adjuvant induced arthritis (AA) of rat, paw oedema; assay type: in vivo
Procedure: Negative control (AA+NS): […] positive control (AA+Dex): dexamethasone, i.p., 0.067 mg/kg/day. Vehicle control (AA+PEG400): […] CAI (AA+CAI): 20 mg/ml CAI, ig, 0.1 ml/100 g/day (20 mg/kg/day). Combination (AA+CAI+Dex): dexamethasone, 0.067 mg/kg/day (i.p.) plus CAI 20 mg/kg/day (p.o.). Normal volumes of left and right hind paw were measured before adjuvant injection. […]

TNF-α = TNF-α levels in paw tissue and serum of adjuvant arthritis rat (ELISA); assay type: in vivo; settings: AA rats, day 29, ELISA
Procedure: Blood was collected from eve socket on day 29 and left in room temperature to allow coagulating. Then serum was separated by centrifugation at 3000 rpm for 10 min and kept in −20° C. After animals were sacrificed, the subcutaneous tissue of the right hind paw and that surrounding the tarsotibial joints was removed, broke into pieces, and placed in 5 ml normal saline (0.9%). The tissues were homogenized in a high speed homogenizer. Then the homogenate was centrifuged at 4° C. and 10,000 rpm for 15 min. The supernatants were collected and stored at −20° C. until further analysis.
IL-1β and TNF-α levels in paw tissue and serum were measured using specific rat ELISA kits according to the manufacturer's instructions.

SMILES: NC(=O)c1nnn(Cc2cc(Cl)c(C(=O)c3ccc(Cl)cc3)c(Cl)c2)c1N [CAI, 5-amino-1-[3,5-dichloro-4-(4-chlorobenzoyl chloride)benzyl]-1H-1,2,3-triazole-4-carboxamide]
- Addiction / withdrawal syndrome (in words) (Kunming mice [1]): does not cause addiction
- Pain intensity score (mean ± std) (Kunming mice [2]; 2% formalin sc hind paw, 15 minutes observation, CAI 20 mg/kg ig twice, morphine 2 mg/kg sc): 1007 ± 255
- Analgesic effect in formalin test (in words) (Kunming mice [2]; pain scores compared with the control group): decrease significantly
- Analgesic effect in writhing test (in words) (Kunming mice [3]): obvious analgesic effect
- Writhing frequency mean ± std (Kunming mice [3]; 0.6% acetic acid ip, writhing in following 5-15 minutes): 8.1 ± 2.3
- granulomatous tissue:bady weight ratio (mean ± std) (rats; 7 days, CAI 20 mg/kg/day p.o., dexamethasone 0.067 mg/kg/day i.p.): 0.060 ± 0.00479
- Effect on granulomatous tissue formation (in words) (rats; two-way ANOVA): potent in inhibiting granulomatous tissue formation
- Primary paw oedema (%), mean ± std (Wistar rats; 1 d, CAI 20 mg/kg/day ig, Dex 0.067 mg/kg/day i.p.): 116.2 ± 17.6 %
- Primary paw oedema (%), mean ± std (Wistar rats; 2 d): 131.9 ± 23.0 %
- Primary paw oedema (%), mean ± std (Wistar rats; 5 d): 122.4 ± 12.4 %
- Primary paw oedema (%), mean ± std (Wistar rats; 8 d): 121.6 ± 21.6 %
- Primary paw oedema (%), mean ± std (Wistar rats; 11 d): 129.3 ± 23.5 %
- Primary paw oedema (%), mean ± std (Wistar rats; 14 d): 112.0 ± 15.7 %
- Secondary paw oedema (%), mean ± std (Wistar rats; 14 d, right hind paw): 2.3 ± 1.0 %
- Primary paw oedema (%), mean ± std (Wistar rats; 17 d): 104.3 ± 20.7 %
- Secondary paw oedema (%), mean ± std (Wistar rats; 17 d): 3.1 ± 0.8%
- Primary paw oedema (%), mean ± std (Wistar rats; 20 d): 92.2 ± 16.0 %
- Secondary paw oedema (%), mean ± std (Wistar rats; 20 d): 8.8 ± 3.2 %
- Primary paw oedema (%), mean ± std (Wistar rats; 23 d): 92.4 ± 15.4 %
- Secondary paw oedema (%), mean ± std (Wistar rats; 23 d): 8.6 ± 2.3 %
- Primary paw oedema (%), mean ± std (Wistar rats; 26 d): 88.6 ± 13.4 %
- Secondary paw oedema (%), mean ± std (Wistar rats; 26 d): 8.6 ± 1.9 %
- Primary paw oedema (%), mean ± std (Wistar rats; 29 d): 86.9 ± 23.1 %
- Secondary paw oedema (%), mean ± std (Wistar rats; 29 d): 6.5 ± 2.7 %
- Effect on paw oedema of AA rats (in words) (Wistar rats; compared with control group, two-way ANOVA): inhibits primary and secondary paw oedema
- TNF-α levels in paw tissue and serum (in words) (TNF-α): significantly reduced
